Test results from ChEMBL document CHEMBL1153555, “Molecular mechanism of target recognition by subtilin, a class I lanthionine antibiotic” (Antimicrob Agents Chemother, 2008).
≈ marks a conversion by molar mass, not a printed value.

Legend:
Lactococcus lactis = assay: Antibacterial activity against Lactococcus lactis MG1614 by disk diffusion assay; type: functional
[1] = Permeability across Micrococcus luteus ATCC 4698 lipid II-containing unilamellar vesicle of 1,2-dioleoyl-sn-gltcero-3-phosphocholine and 1,2-dioleoyl-sn-glycero-3-phosphoglycerol assessed as partial leakage after disintegration of vesicles at lower concentration by carboxyfluorescein leakage assay; type: ADME

Row | Compound | MIC (Lactococcus lactis) | permeability [1]
1 | C=C1NC(=O)CC[C@@H](C(=O)O)NC(=O)[C@H](NC(=O)[C@H](CCCCN)NC(=O)[C@@H](N)Cc2c[nH]c3ccccc23)CSC[C@@H](C(=O)N[C@@H]2C(=O)N3CCC[C@H]3C(=O)NCC(=O)N[C@H](C(=O)N[C@H](C(=O)N[C@@H]3C(=O)NCC(=O)N[C@@H](C)C(=O)N[C@@H](CC(C)C)C(=O)N[C@@H](CCC(N)=O)C(=O)N/C(=C/C)C(=O)N[C@H](C(=O)N[C@@H](Cc4ccccc4)C(=O)N[C@@H](CC(C)C)C(=O)N[C@@H](CCC(N)=O)C(=O)N[C@@H]4C(=O)N[C@@H](CC(C)C)C(=O)N[C@H]5C(=O)N[C@@H](CSC4C)C(=O)NC(=O)[C@H](CC(N)=O)N[C@H](C(=O)N[C@@H](CCCCN)C(=O)O)CSC5C)CSC3C)C(C)C)CSC2C)N[C@@H](CC(C)C)C(=O)NC1=O (stereo not given in full) | 11.5 µg/mL (≈ 3.82 µM) | 
2 | C=C(NC(=O)[C@@H](NC(=O)[C@H](CCCCN)NC(=O)[C@@H]1CS[C@@H](C)[C@H]2NC(=O)[C@H](CC(C)C)NC(=O)[C@H](NC(=O)[C@H](CCC(N)=O)NC(=O)[C@H](CC(C)C)NC(=O)[C@H](Cc3ccccc3)NC(=O)[C@@H]3CS[C@@H](C)[C@@H](NC(=O)[C@@H](NC(=O)[C@@H]4CS[C@@H](C)[C@@H](NC(=O)[C@@H]5CSC[C@@H](NC(=O)[C@H](CCCCN)NC(=O)[C@@H](N)Cc6c[nH]c7ccccc67)C(=O)N[C@@H](CCC(=O)O)C(=O)NC(=C)C(=O)N[C@@H](CC(C)C)C(=O)N5)C(=O)N5CCC[C@H]5C(=O)NCC(=O)N4)C(C)C)C(=O)NCC(=O)N[C@@H](C)C(=O)N[C@@H](CC(C)C)C(=O)N[C@@H](CCC(N)=O)C(=O)N/C(=C\C)C(=O)N3)[C@H](C)SC[C@H](NC2=O)C(=O)N[C@@H](CC(N)=O)C(=O)N1)[C@@H](C)CC)C(=O)N[C@@H](CCCCN)C(=O)O [SUBTILIN] |  | 20%
3 | C=C(NC(=O)[C@@H](NC(=O)[C@H](CCCCN)NC(=O)[C@@H]1CS[C@@H](C)[C@H]2NC(=O)[C@H](CC(C)C)NC(=O)[C@H](NC(=O)[C@H](CCC(N)=O)NC(=O)[C@H](CC(C)C)NC(=O)[C@H](Cc3ccccc3)NC(=O)[C@@H]3CS[C@@H](C)[C@@H](NC(=O)[C@@H](NC(=O)[C@@H]4CS[C@@H](C)[C@@H](NC(=O)[C@@H]5CSC[C@@H](NC(=O)[C@H](CCCCN)NC(=O)[C@H](Cc6c[nH]c7ccccc67)NC(=O)CCC(=O)O)C(=O)N[C@@H](CCC(=O)O)C(=O)NC(=C)C(=O)N[C@@H](CC(C)C)C(=O)N5)C(=O)N5CCC[C@H]5C(=O)NCC(=O)N4)C(C)C)C(=O)NCC(=O)N[C@@H](C)C(=O)N[C@@H](CC(C)C)C(=O)N[C@@H](CCC(N)=O)C(=O)N/C(=C\C)C(=O)N3)[C@H](C)SC[C@H](NC2=O)C(=O)N[C@@H](CC(N)=O)C(=O)N1)[C@@H](C)CC)C(=O)N[C@@H](CCCCN)C(=O)O | 19.2 µg/mL (≈ 5.6 µM) | 

Other lines, results leading:

Row | MIC (Lactococcus lactis) | permeability [1] | Compound
4 | > 50 µg/mL |  | C=C1NC(=O)[C@H](CCC(=O)O)NC(=O)[C@H](NC(=O)[C@@H](N)CCCCN)CSC[C@@H](C(=O)N[C@H]2C(=O)N3CCC[C@H]3C(=O)NCC(=O)N[C@H](C(=O)N[C@H](C(=O)N[C@H]3C(=O)NCC(=O)N[C@@H](C)C(=O)N[C@@H](CC(C)C)C(=O)N[C@@H](CCC(N)=O)C(=O)N/C(=C\C)C(=O)N[C@H](C(=O)N[C@@H](Cc4ccccc4)C(=O)N[C@@H](CC(C)C)C(=O)N[C@@H](CCC(N)=O)C(=O)N[C@H]4C(=O)N[C@@H](CC(C)C)C(=O)N[C@H]5C(=O)N[C@@H](CS[C@H]4C)C(=O)N[C@@H](CC(N)=O)C(=O)N[C@H](C(=O)N[C@@H](CCCCN)C(=O)O)CS[C@H]5C)CS[C@H]3C)C(C)C)CS[C@H]2C)NC(=O)[C@H](CC(C)C)NC1=O
5 | 1.13 µg/mL (≈ 0.34 µM) |  | C=C1NC(=O)CC[C@@H](C(=O)O)NC(=O)[C@H](NC(=O)[C@H](CCCCN)NC(=O)[C@@H](N)Cc2c[nH]c3ccccc23)CSC[C@@H](C(=O)N[C@@H]2C(=O)N3CCC[C@H]3C(=O)NCC(=O)N[C@H](C(=O)N[C@H](C(=O)N[C@@H]3C(=O)NCC(=O)N[C@@H](C)C(=O)N[C@@H](CC(C)C)C(=O)N[C@@H](CCC(N)=O)C(=O)N/C(=C/C)C(=O)N[C@H](C(=O)N[C@@H](Cc4ccccc4)C(=O)N[C@@H](CC(C)C)C(=O)N[C@@H](CCC(N)=O)C(=O)N[C@@H]4C(=O)N[C@@H](CC(C)C)C(=O)N[C@H]5C(=O)N[C@@H](CSC4C)C(=O)NC(=O)[C@H](CC(N)=O)N[C@H](C(=O)N[C@@H](CCCCN)C(=O)N[C@H](C(=O)NC(=C)C(=O)N[C@@H](CCCCN)C(=O)O)[C@@H](C)CC)CSC5C)CSC3C)C(C)C)CSC2C)N[C@@H](CC(C)C)C(=O)NC1=O (stereo not given in full) [SUBTILIN]
